Values quoted from earlier work, collected in patent US20080207756A1, “Bio-absorbable oil suspension” (ATRIUM MEDICAL CORPORATION, priority 2007, published 2008).
Counter-ions that a name gives are not always drawn.

Conditions: liquid Bupivacaine HCL without epinephrine

half life: 2 to 3 h
SMILES: CCCCN1CCCCC1C(=O)Nc1c(C)cccc1C (stereo not shown) [Bupivacaine HCL]
